Results on 25 compounds are retold here after patent US20240101570A1 (AMGEN INC., priority 2020, published 2024).

In one assay the test system is HCT116 WT cells. Description: HCT116 WT cell proliferation / viability (CellTiter-Glo, 6 days). The format is cell-based. The settings on record: Homo sapiens, HCT-116, 144 h, HCT116 WT cells, 6 days, CellTiter-Glo; read-out: HCT-116 WT IC50. In short, it runs like this: (§1)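 Viability read by CellTiter-Glo after 6-day compound exposure of MTAP-null and wild-type HCT116 cells grown in RPMI 1640 with 10% FBS. Dosing used 1:3 steps from 1 or 10 μM (8-9 points) or 1:2 steps from 10 or 50 μM (22 points); IC50 taken where fitted curve crosses 50% of control.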
(In general: In ATP-based viability assays light output follows the ATP content of the culture.)

The subject of a further assay is HCT116 MTAP null cells. Description: HCT116 MTAP null cell proliferation / viability (CellTiter-Glo, 6 days). The format is cell-based. The settings on record: for IC50: HCT116-MTAP null, 144 h, HCT116 MTAP null cells, 6 days, CellTiter-Glo, read-out: HCT-116 MTAP null IC50. In short, it runs like this: as §1

The term IC50 denotes the concentration needed to halve the response being measured. Turning to `CN(Cc1ccc(C2CC2)cn1)C(=O)c1cc2c3c(c(N)nc2cn1)COC3` [Example 349, 4-amino-N-((5-cyclopropyl-2-pyridinyl)methyl)-N-methyl-1,3-dihydrofuro[3,4-c][1,7]naphthyridine-8-carboxamide], the IC50 with HCT116 WT cells was 9190 nM; in the assay on HCT116 MTAP null cells, 325 nM.

On to `CC(C)N(Cc1ccc(C(F)(F)F)nn1)C(=O)c1cc2c3c(c(N)nc2cc1Cl)COC3` [Example 394, 4-amino-7-chloro-N-(2-propanyl)-N-((6-(trifluoromethyl)-3-pyridazinyl)methyl)-1,3-dihydrofuro[3,4-c]quinoline-8-carboxamide], for which the IC50 came out at 831 nM in the assay with HCT116 WT cells and 30 nM in the assay with HCT116 MTAP null cells.

For `CC(C)CN(Cc1ccc(C(F)(F)F)cn1)C(=O)c1cc2c3c(c(N)nc2cn1)COC3` [Example 620, 4-amino-N-(2-methylpropyl)-N-((5-(trifluoromethyl)-2-pyridinyl)methyl)-1,3-dihydrofuro[3,4-c][1,7]naphthyridine-8-carboxamide], the 50% inhibitory concentration (IC50) in the assay with HCT116 WT cells is 3560 nM; in the assay with HCT116 MTAP null cells, 77 nM.

Consider `C[C@H](c1ccc(C(F)(F)F)cc1)N(C)C(=O)c1cc2c(cn1)nc(N)c1cnn(C)c12` (single isomer, unassigned) [Example 598], for which the values for the concentration for half-maximal inhibition (IC50) in the assay with HCT116 WT cells and with HCT116 MTAP null cells were 415 nM and 8 nM, respectively.

In the case of `Nc1nc2ccc(C(=O)N(Cc3ccc(C(F)(F)F)cn3)Cc3ncccc3F)cc2c2ccsc12` [Example 635, 4-amino-N-((3-fluoro-2-pyridinyl)methyl)-N-((5-(trifluoromethyl)-2-pyridinyl)methyl)thieno[2,3-c]quinoline-8-carboxamide], the half-maximal inhibitory concentration (IC50) in the assay on HCT116 WT cells came out at 1210 nM; with HCT116 MTAP null cells it was 73 nM.

Turning to `CC(c1ncccn1)N(Cc1ccc(C(F)(F)F)cn1)C(=O)c1ccc2nc(N)c3c(cnn3C)c2c1` (racemic) [Example 618, 4-amino-3-methyl-N-((1R)-1-(2-pyrimidinyl)ethyl)-N-((5-(trifluoromethyl)-2-pyridinyl)methyl)-3H-pyrazolo[3,4-c]quinoline-8-carboxamide and 4-amino-3-methyl-N-((1S)-1-(2-pyrimidinyl)ethyl)-N-((5-(trifluoromethyl)-2-pyridinyl)methyl)-3H-pyrazolo[3,4-c]quinoline-8-carboxamide], the IC50 in the assay on HCT116 WT cells was 264 nM; with HCT116 MTAP null cells it was 33 nM.

In the case of `C[C@H]1OCc2c1c(N)nc1ccc(C(=O)N(C)Cc3ccc(C#N)cn3)cc21` [Example 386, (3R)-4-amino-N-((5-cyano-2-pyridinyl)methyl)-N,3-dimethyl-1,3-dihydrofuro[3,4-c]quinoline-8-carboxamide], the concentration for half-maximal inhibition (IC50) in the assay with HCT116 WT cells worked out at 30300 nM; with HCT116 MTAP null cells, 455 nM.

Turning to `CCN(Cc1cnc(C(F)(F)F)cn1)C(=O)c1cc2c3c(c(N)nc2cc1Cl)COC3` [Example 498, 4-amino-7-chloro-N-ethyl-N-((5-(trifluoromethyl)-2-pyrazinyl)methyl)-1,3-dihydrofuro[3,4-c]quinoline-8-carboxamide], the IC50 in the assay on HCT116 WT cells was 12700 nM; in the assay with HCT116 MTAP null cells it was 266 nM.

Take `C[C@H](c1ncccc1F)N(Cc1ccc(Br)nn1)C(=O)c1cc2c3c(c(N)nc2cc1F)COC3` [Example 437, 4-amino-N-((6-bromo-3-pyridazinyl)methyl)-7-fluoro-N-((1R)-1-(3-fluoro-2-pyridinyl)ethyl)-1,3-dihydrofuro[3,4-c]quinoline-8-carboxamide]: the results for the IC50 in the assay on HCT116 WT cells and in the assay on HCT116 MTAP null cells were 353 nM and 31 nM, respectively.

On to `COC[C@H](C1CC1)N(Cc1ccc(Br)nn1)C(=O)c1ccc2nc(N)c3sccc3c2c1` (single isomer, unassigned) [Example 650], for which the IC50 in the assay on HCT116 WT cells came to 811 nM; with HCT116 MTAP null cells, 53 nM.

For the compound `C[C@H](c1ccc(C(F)(F)F)cn1)N(C(=O)c1cc2c3c(c(N)nc2cn1)[C@@H](C)OC3)C1CC1` (single isomer, unassigned) [Example 589], the half-maximal inhibitory concentration (IC50) in the assay with HCT116 WT cells amounted to 815 nM; with HCT116 MTAP null cells it was 29 nM.

As to `Nc1nc2ccc(C(=O)N(Cc3ccc(OC(F)F)nn3)CC3CC3)cc2c2c1COC2` [Example 426, 4-amino-N-(cyclopropylmethyl)-N-((6-(difluoromethoxy)-3-pyridazinyl)methyl)-1,3-dihydrofuro[3,4-c]quinoline-8-carboxamide], the IC50 with HCT116 WT cells was 4220 nM; in the assay with HCT116 MTAP null cells, 96 nM.

As to `CCN(C(=O)c1cc2c3c(c(N)nc2cc1F)COC3)C(C)c1ccc(Cl)nc1` (racemic) [Example 739, 4-amino-N-((1R)-1-(6-chloro-3-pyridinyl)ethyl)-N-ethyl-7-fluoro-1,3-dihydrofuro[3,4-c]quinoline-8-carboxamide and 4-amino-N-((1S)-1-(6-chloro-3-pyridinyl)ethyl)-N-ethyl-7-fluoro-1,3-dihydrofuro[3,4-c]quinoline-8-carboxamide], the figures for the 50% inhibitory concentration (IC50) in the assay with HCT116 WT cells and with HCT116 MTAP null cells were 2220 nM and 71 nM, respectively.

In the case of `Cn1ncc2c(N)nc3cc(F)c(C(=O)N(Cc4ncc(C(F)(F)F)cc4F)C4CC4)cc3c21` [Example 809, 4-amino-N-cyclopropyl-7-fluoro-N-((3-fluoro-5-(trifluoromethyl)-2-pyridinyl)methyl)-1-methyl-1H-pyrazolo[4,3-c]quinoline-8-carboxamide], the IC50 is 1790 nM in the assay on HCT116 WT cells and 31 nM with HCT116 MTAP null cells.

With `C[C@H](c1ncccn1)N(Cc1ccc(C(F)(F)F)cn1)C(=O)c1ccc2nc(N)c3ncncc3c2c1` [Example 638, 5-amino-N-((1R)-1-(2-pyrimidinyl)ethyl)-N-((5-(trifluoromethyl)-2-pyridinyl)methyl)pyrimido[4,5-c]quinoline-9-carboxamide], the half-inhibitory concentration (IC50) in the assay with HCT116 WT cells came to 378 nM; in the assay with HCT116 MTAP null cells, 22 nM.

Regarding `C[C@H]1OCc2c1c(N)nc1cc(F)c(C(=O)N(Cc3ccc(OCC(F)(F)F)nn3)CC3CC3)cc21` [Example 818, (3R)-4-amino-N-(cyclopropylmethyl)-7-fluoro-3-methyl-N-((6-(2,2,2-trifluoroethoxy)-3-pyridazinyl)methyl)-1,3-dihydrofuro[3,4-c]quinoline-8-carboxamide], the 50% inhibitory concentration (IC50) came out at 161 nM with HCT116 WT cells and 7 nM in the assay on HCT116 MTAP null cells.

For `COc1ccc(CN(C(=O)c2ccc3nc(N)c4c(c3c2)CCC4)[C@@H](C)c2ncccn2)nn1` (single isomer, unassigned) [Example 647], the figures for the IC50 in the assay on HCT116 WT cells and in the assay with HCT116 MTAP null cells were 4200 nM and 673 nM, respectively. For the same compound, the “potency of enantiomer relative to the other enantiomer, measured by IC50 in HCT116 MTAP null cell viability assay” value with HCT116 MTAP null cells (HCT116 MTAP null, comparison of the two SFC-separated enantiomers) is on record as “less potent”.

With `Cn1ncc2c(N)nc3cc(C(F)(F)F)c(C(=O)N(Cc4ccc(C(F)(F)F)nn4)C4CC4)cc3c21` [Example 813, 4-amino-N-cyclopropyl-1-methyl-7-(trifluoromethyl)-N-((6-(trifluoromethyl)-3-pyridazinyl)methyl)-1H-pyrazolo[4,3-c]quinoline-8-carboxamide], the IC50 came to 29300 nM with HCT116 WT cells and 676 nM in the assay on HCT116 MTAP null cells.

For the compound `CN(C(=O)c1cc2c3c(c(N)nc2cn1)COC3)C(c1ccc(C(F)(F)F)cn1)C1CC1` (racemic) [Example 764, 4-amino-N-((R)-cyclopropyl(5-(trifluoromethyl)-2-pyridinyl)methyl)-N-methyl-1,3-dihydrofuro[3,4-c][1,7]naphthyridine-8-carboxamide and 4-amino-N-((S)-cyclopropyl(5-(trifluoromethyl)-2-pyridinyl)methyl)-N-methyl-1,3-dihydrofuro[3,4-c][1,7]naphthyridine-8-carboxamide], the IC50 in the assay with HCT116 WT cells was greater than 50000 nM; with HCT116 MTAP null cells it was 6380 nM.

For the compound `CN(Cc1ccc(C(F)(F)F)cn1)C(=O)c1cc2c3c(c(N)nc2cc1Cl)COC3` [Example 470, 4-amino-7-chloro-N-methyl-N-((5-(trifluoromethyl)-2-pyridinyl)methyl)-1,3-dihydrofuro[3,4-c]quinoline-8-carboxamide], the 50% inhibitory concentration (IC50) with HCT116 WT cells amounted to 3020 nM; in the assay with HCT116 MTAP null cells, 41 nM.

With `C[C@H](c1ncn(C)n1)N(Cc1ccc(C(F)F)cn1)C(=O)c1ccc2nc(N)c3c(c2c1)CO[C@@H]3C` [Example 466, (3R)-4-amino-N-((5-(difluoromethyl)-2-pyridinyl)methyl)-3-methyl-N-((1R)-1-(1-methyl-1H-1,2,4-triazol-3-yl)ethyl)-1,3-dihydrofuro[3,4-c]quinoline-8-carboxamide], the IC50 in the assay with HCT116 WT cells was determined as 217 nM; with HCT116 MTAP null cells, 28 nM.

As to `CC1(C)OCc2c1c(N)nc1ccc(C(=O)N(Cc3ccc(C(F)(F)F)cn3)C3CC3)cc21` [Example 935, 4-amino-N-cyclopropyl-3,3-dimethyl-N-((5-(trifluoromethyl)pyridin-2-yl)methyl)-1,3-dihydrofuro[3,4-c]quinoline-8-carboxamide], the half-inhibitory concentration (IC50) with HCT116 WT cells is greater than 1000 nM; in the assay with HCT116 MTAP null cells, 630 nM.

`CCN(Cc1ccc(C(F)(F)F)cn1)C(=O)c1cc2c3c(c(N)nc2cn1)[C@@H](C)OC3` [Example 408, (3R)-4-amino-N-ethyl-3-methyl-N-((5-(trifluoromethyl)-2-pyridinyl)methyl)-1,3-dihydrofuro[3,4-c][1,7]naphthyridine-8-carboxamide]: the half-maximal inhibitory concentration (IC50) was determined as 3350 nM with HCT116 WT cells and 86 nM with HCT116 MTAP null cells.

Regarding `CC(C)N(Cc1ccc(C#N)cn1)C(=O)c1ccc2nc(N)c3c(c2c1)CO[C@@H]3C` [Example 354, (3R)-4-amino-N-((5-cyano-2-pyridinyl)methyl)-3-methyl-N-(2-propanyl)-1,3-dihydrofuro[3,4-c]quinoline-8-carboxamide], the IC50 in the assay with HCT116 WT cells is 21400 nM; in the assay with HCT116 MTAP null cells it was 623 nM.

Take `CCN(C(=O)c1ccc2nc(N)c3c(c2c1)COC3)[C@H](C)c1ccc(C(F)(F)F)cn1` (single isomer, unassigned) [Example 822]: the IC50 with HCT116 WT cells stood at 12000 nM; in the assay with HCT116 MTAP null cells, 323 nM.
